Measurements: US4318989A, “Starch-degrading enzymes from Cladosporium resinae” (Lifeline Products, Inc., priority 1980, dated 1982)

Key:
[1] = tested on: Cladosporium resinae glucoamylase S; assay: Kinetic constants of glucoamylases (release of glucose from substrate); type: biochemical, Cladosporium resinae (ATCC No. 20495); conditions: Table VI
[2] = tested on: Aspergillus niger glucoamylase II; assay: as above; type: biochemical; conditions: Table VI
Method: In assaying the rate of release of glucose from starch, pullulan or maltose, enzyme solution (culture solution) (0.1 ml) undiluted or diluted up to 100-fold, was incubated with substrate solution (0.5 ml) for 5 to 20 minutes at 37° C. […]. This reaction was terminated and the color developed by adding 50% HCl solution (2 ml). Substrates employed were pullulan, maltose and J. T. Baker Starch (Lintner) Soluble all at 5 mg/ml concentration and in 0.1 M sodium acetate buffer pH 4.3. α-amylase was assayed by the method described in Marshall, J.J., et al, Clinica Chemica Acta, 76, 277 (1977).
The relative rates of hydrolysis of several glucooligosaccharides and polysaccharides are shown in Table V based upon data shown in FIG. 6-11. Results are compared to those obtained using Aspergillus niger glucoamylase II. […] Table VI provides the kinetic constants of the Cladosporium resinae glucoamylases and Asperigillus niger glucoamylase.

OC[C@H]1O[C@H](O[C@H]2[C@H](O)[C@@H](O)C(O)O[C@@H]2CO)[C@H](O)[C@@H](O)[C@@H]1O (mixture of isomers) [Maltose]
VMAX [1]: 2.9 μmoles glucose released per mi
VMAX [2]: 4.8 μmoles glucose released per mi
